According to ChEMBL document CHEMBL4813969, “Design, synthesis and evaluation of 3-amide-5-aryl benzoic acid derivatives as novel P2Y14R antagonists with potential high efficiency against acute gouty arthritis” (Eur J Med Chem, 2021):
pIC50: −log10 of the molar value. In brackets after ≈: the same amount, converted by molar mass. Activity calls are given as the source filed them. No cut-off for these calls is given here.

Legend:
P2Y purinoceptor 14 = biological target: T1, P2Y purinoceptor 14 (Homo sapiens, UniProt Q15391); assay: Antagonist activity at P2Y14 (unknown origin) expressed in HEK293 cells assessed as reduction in cAMP production incubated for 30 mins by ADP-glo assay; format: functional, cell-based
T1 sequence (Q15391 whole entry): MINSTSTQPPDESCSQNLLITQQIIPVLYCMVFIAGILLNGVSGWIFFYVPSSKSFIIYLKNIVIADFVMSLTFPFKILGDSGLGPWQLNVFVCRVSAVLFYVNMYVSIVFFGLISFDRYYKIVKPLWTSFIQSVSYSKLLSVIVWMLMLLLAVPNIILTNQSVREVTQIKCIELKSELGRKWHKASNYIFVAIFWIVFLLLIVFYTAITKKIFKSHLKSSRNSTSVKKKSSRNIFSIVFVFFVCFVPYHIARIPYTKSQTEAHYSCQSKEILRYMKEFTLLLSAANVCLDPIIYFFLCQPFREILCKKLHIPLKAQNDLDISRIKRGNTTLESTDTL

[1] = Aqueous solubility of compound in PBS buffer at pH 7.4 incubated for overnight by UV-spectrometry; format: physicochemical
[2] = biological target: T2, P2Y purinoceptor 14 (Homo sapiens) (UniProt Q15391); settings: time 30.0 min
T2 sequence (whole entry): T1 sequence (Q15391 whole entry)

[3] = Oral bioavailability in mouse at 10 mg/kg; format: ADME, organism-based; settings: in vivo
Mus musculus [4] = assay: Antiarthritic activity against MSU-induced acute gout arthritis ICR mouse model assessed as reduction in paw swelling at 10 mg/kg, sc measured upto 24 hrs; format: functional, organism-based; settings: time hrs <=24
Mus musculus [5] = assay: Antiarthritic activity against MSU-induced acute gout arthritis ICR mouse model assessed as reduction in infiltration of inflammatory cells at 10 mg/kg, sc measured upto 24 hrs; format: functional, organism-based; settings: time hrs <=24
Mus musculus [6] = assay: Downregulation of MSU-induced NLRP3 expression in foot tissue of MSU-induced acute gout arthritis ICR mouse model at 10 mg/kg, sc measured upto 24 hrs by Western blot analysis; format: functional, organism-based; settings: time hrs <=24
Mus musculus [7] = assay: Downregulation of MSU-induced ASC expression in foot tissue of MSU-induced acute gout arthritis ICR mouse model at 10 mg/kg, sc measured upto 24 hrs by Western blot analysis; format: functional, organism-based; settings: time hrs <=24
Mus musculus [8] = assay: Downregulation of MSU-induced caspase-1 P20 expression in foot tissue of MSU-induced acute gout arthritis ICR mouse model at 10 mg/kg, sc measured upto 24 hrs by Western blot analysis; format: functional, organism-based; settings: time hrs <=24
Mus musculus [9] = assay: Inhibition of MSU-induced IL-1beta level in foot tissue of MSU-induced acute gout arthritis ICR mouse model at 10 mg/kg, sc measured upto 24 hrs by Western blot analysis; format: functional, organism-based; settings: time hrs <=24
Mus musculus [10] = assay: Inhibition of MSU-induced IL-8 level in foot tissue of MSU-induced acute gout arthritis ICR mouse model at 10 mg/kg, sc measured upto 24 hrs by Western blot analysis; format: functional, organism-based; settings: time hrs <=24
Mus musculus [11] = assay: Inhibition of MSU-induced GSDMD-NT level in foot tissue of MSU-induced acute gout arthritis ICR mouse model at 10 mg/kg, sc measured upto 24 hrs by Western blot analysis; format: functional, organism-based; settings: time hrs <=24
[12] = In vivo inhibition of MSU-induced pyroptosis in ICR mouse model of acute gout arthritis assessed as viable macrophage cells in foot tissue at 10 mg/kg, sc incubated for 24 hrs by caspase-1 and PI staining based flow cytometric analysis (reference value: 34.3 %); format: functional
[13] = In vivo inhibition of MSU-induced pyroptosis in ICR mouse model of acute gout arthritis assessed as early apoptotic macrophage cells in foot tissue at 10 mg/kg, sc incubated for 24 hrs by caspase-1 and PI staining based flow cytometric analysis (reference value: 12.7 %); format: functional
[14] = In vivo inhibition of MSU-induced pyroptosis in ICR mouse model of acute gout arthritis assessed as late apoptotic macrophage cells in foot tissue at 10 mg/kg, sc incubated for 24 hrs by caspase-1 and PI staining based flow cytometric analysis (reference value: 21.6 %); format: functional
[15] = In vivo inhibition of MSU-induced pyroptosis in ICR mouse model of acute gout arthritis assessed as necrotic macrophage cells in foot tissue at 10 mg/kg, sc incubated for 24 hrs by caspase-1 and PI staining based flow cytometric analysis (reference value: 31.4 %); format: functional
[16] = Chemical stability of compound in DMSO; format: physicochemical
[17] = Metabolic stability in human liver microsomes assessed as half life at […] incubated for 45 mins by LC-MS/MS analysis; format: ADME, Microsome
[18] = Cmax in mouse at 5 mg/kg, iv; format: ADME, organism-based; design: route intravenous, dose 5 mg/kg; settings: in vivo
[19] = Half life in mouse at 5 mg/kg, iv; format: ADME, organism-based; settings: in vivo
[20] = AUC in mouse at 5 mg/kg, iv; format: ADME, organism-based; design: dose 5 mg/kg; settings: in vivo
[21] = Volume of distribution at steady state in mouse at 5 mg/kg, iv; format: ADME, organism-based; settings: in vivo, read-out: Vdss
[22] = Tmax in mouse at 5 mg/kg, iv; format: ADME, organism-based; settings: in vivo
[23] = Cmax in mouse at 10 mg/kg, po; format: ADME, organism-based; design: route oral, dose 10 mg/kg; settings: in vivo
[24] = Half life in mouse at 10 mg/kg, po; format: ADME, organism-based; settings: in vivo
[25] = AUC in mouse at 10 mg/kg, po; format: ADME, organism-based; design: dose 10 mg/kg; settings: in vivo
[26] = Volume of distribution at steady state in mouse at 10 mg/kg, po; format: ADME, organism-based; settings: in vivo
[27] = Clearance in mouse at 10 mg/kg, po; format: ADME, organism-based; settings: in vivo
[28] = HEK293, filed as antagonist, dose 100.0 nM

With `Cc1ccc(C(=O)Nc2cc(C(=O)O)cc(-c3ccccc3)c2)cc1` as the compound, how does the pIC50 (P2Y purinoceptor 14) read?
The pIC50 was 8.31.

What about the solubility [1] of the same compound?
The solubility was 46.3 µg/mL (≈ 140 µM).

And the inhibition [2, 28]?
Its inhibition is 87%.

With `Cc1ccc(C(=O)Nc2cc(C(=O)O)cc(-c3ccco3)c2)cc1` as the compound, how does the inhibition [2, 28] read?
The inhibition was 61.1%.

For `O=C(O)c1cc(-c2ccc(C3CCNCC3)cc2)c2ccc(-c3ccc(C(F)(F)F)cc3)cc2c1` [PPTN], which bioavailability [3] is on record?
The bioavailability was 7%.

What about the solubility [1] of the same compound?
The solubility was < 5 µg/mL.

And the Activity (Mus musculus [4])?
The Activity was “Active”.

And the Activity (Mus musculus [5])?
Its Activity is “Active”.

And the Activity (Mus musculus [6])?
The Activity was “Active”.

What about the Activity (Mus musculus [7]) of the same compound?
The Activity was “Active”.

And the Activity (Mus musculus [8])?
The Activity was “Active”.

And the inhibition (Mus musculus [9])?
The inhibition was “Active”.

What about the inhibition (Mus musculus [10]) of the same compound?
The inhibition was “Active”.

What about the inhibition (Mus musculus [11]) of the same compound?
Its inhibition is “Active”.

What about the inhibition in vivo at 10 mg/kg [12] of the same compound?
Its inhibition in vivo at 10 mg/kg is 65.1%.

And the inhibition in vivo at 10 mg/kg [13]?
The inhibition in vivo at 10 mg/kg was 17.3%.

What about the inhibition in vivo at 10 mg/kg [14] of the same compound?
The inhibition in vivo at 10 mg/kg was 6.41%.

And the inhibition in vivo at 10 mg/kg [15]?
Its inhibition in vivo at 10 mg/kg is 11.1%.

For `Cc1ccc(C(=O)Nc2cc(C(=O)O)cc(-c3ccc(C)o3)c2)cc1`, which inhibition ([2]; HEK293, dose 100.0 nM) is on record?
Its inhibition is 16.1%.

For `Cc1ccc(C(=O)Nc2cc(C(=O)O)cc(-c3ccc(C)s3)c2)cc1`, which inhibition [2, 28] is on record?
Its inhibition is 60.2%.

With `Cc1ccc(C(=O)Nc2cc(C(=O)O)cc(-c3ccsc3)c2)cc1` as the compound, how does the pIC50 (P2Y purinoceptor 14) read?
Its pIC50 is 8.01.

What about the inhibition [2, 28] of the same compound?
Its inhibition is 83%.

Which inhibition [2, 28] does the source give for `Cc1ccc(C(=O)Nc2cc(C(=O)O)cc(-c3cccs3)c2)cc1` here?
The inhibition was 68.8%.

With `Cc1ccc(C(=O)Nc2cc(C(=O)O)cc(-c3ccoc3)c2)cc1` as the compound, how does the pIC50 (P2Y purinoceptor 14) read?
The pIC50 was 8.66.

And the Stabilty [16]?
The Stabilty was “Stable”.

What about the half-life [17] of the same compound?
Its half-life is > 1 h.

What about the Cmax [18] of the same compound?
The Cmax was 19300 ng/mL.

And the half-life [19]?
The half-life was 2.32 h.

What about the AUC [20] of the same compound?
The AUC was 843849 ng·min/mL.

And the Vd [21]?
Its Vd is 0.782 L/kg.

What about the Tmax [22] of the same compound?
The Tmax was 5 min.

And the Cmax [23]?
Its Cmax is 1800 ng/mL.

And the half-life [24]?
The half-life was 2.56 h.

What about the AUC [25] of the same compound?
The AUC was 7280 ng·h/mL.

What about the Vdss [26] of the same compound?
The Vdss was 0.21267 L/kg.

And the CL/F [27]?
The CL/F was 6.03 mL/min/kg.

What about the bioavailability [3] of the same compound?
Its bioavailability is 48.3%.

And the solubility [1]?
The solubility was 77.6 µg/mL (≈ 241 µM).

And the Activity (Mus musculus [4])?
The Activity was “Active”.

What about the Activity (Mus musculus [5]) of the same compound?
Its Activity is “Active”.

And the Activity (Mus musculus [6])?
Its Activity is “Active”.

And the Activity (Mus musculus [7])?
The Activity was “Active”.

And the Activity (Mus musculus [8])?
Its Activity is “Active”.

What about the inhibition (Mus musculus [9]) of the same compound?
Its inhibition is “Active”.

What about the inhibition (Mus musculus [10]) of the same compound?
Its inhibition is “Active”.

And the inhibition (Mus musculus [11])?
Its inhibition is “Active”.

And the inhibition in vivo at 10 mg/kg [12]?
The inhibition in vivo at 10 mg/kg was 43.2%.

What about the inhibition in vivo at 10 mg/kg [13] of the same compound?
The inhibition in vivo at 10 mg/kg was 13%.

And the inhibition in vivo at 10 mg/kg [14]?
The inhibition in vivo at 10 mg/kg was 10.9%.

And the inhibition in vivo at 10 mg/kg [15]?
The inhibition in vivo at 10 mg/kg was 33%.

What about the inhibition [2, 28] of the same compound?
The inhibition was 93.4%.

For `Cc1ccc(C(=O)Nc2cc(C(=O)O)cc(-c3cccnc3)c2)cc1`, which inhibition [2, 28] is on record?
The inhibition was 79.1%.

For `Cc1ccc(C(=O)Nc2cc(C(=O)O)cc(-c3ccc(C4CCNCC4)cc3)c2)cc1`, which bioavailability [3] is on record?
The bioavailability was 6%.

And the inhibition [2, 28]?
Its inhibition is 85.3%.

What does the source list for `Cc1ccc(C(=O)Nc2cc(C(=O)O)cc(-c3c(C)noc3C)c2)cc1`?
pIC50 (P2Y purinoceptor 14): 8.53; Stabilty [16]: Unstable; inhibition [2, 28]: 82.3%

With `Cc1ccc(C(=O)Nc2cc(C(=O)O)cc(-c3ccncc3)c2)cc1` as the compound, how does the inhibition [2, 28] read?
The inhibition was 72.1%.

For `Cc1ccc(C(=O)Nc2cc(C(=O)O)cc(-c3ccc[nH]3)c2)cc1`, which inhibition [2, 28] is on record?
Its inhibition is 46%.

For `CC(=O)c1ccc(-c2cc(NC(=O)c3ccc(C)cc3)cc(C(=O)O)c2)s1`, which inhibition [2, 28] is on record?
The inhibition was 43.7%.

With `Cc1ccc(C(=O)Nc2cc(C(=O)O)cc(-c3cnc(N)nc3)c2)cc1` as the compound, how does the inhibition [2, 28] read?
The inhibition was 68.6%.

For `Cc1ccc(C(=O)Nc2cc(C(=O)O)cc(-c3cncnc3)c2)cc1`, which inhibition [2, 28] is on record?
The inhibition was 65.7%.

Which inhibition [2, 28] does the source give for `COc1ccc(-c2cc(NC(=O)c3ccc(C)cc3)cc(C(=O)O)c2)cc1` here?
Its inhibition is 79.1%.

With `COc1ncc(-c2cc(NC(=O)c3ccc(C)cc3)cc(C(=O)O)c2)cn1` as the compound, how does the inhibition [2, 28] read?
Its inhibition is 72.5%.

With `Cc1ccc(C(=O)Nc2cc(C(=O)O)cc(-c3cc[nH]n3)c2)cc1` as the compound, how does the pIC50 (P2Y purinoceptor 14) read?
The pIC50 was 8.58.

And the Stabilty [16]?
The Stabilty was “Unstable”.

What about the inhibition [2, 28] of the same compound?
The inhibition was 86.8%.
